According to ChEMBL document CHEMBL1154047, “Chiral gossypol derivatives: evaluation of their anticancer activity and molecular modeling” (Eur J Med Chem, 2009):
Values joined by “and” are separate entries in the source; they are usually repeats but may differ in a detail not shown here. Equal values may be shown once.

Experiments:
[1] = Ratio of compound IC50 to (-)-gossypol IC50 for human M85 cells; format: functional
[2] = Anticancer activity against human U87 cells after 48 hrs by MTT assay; format: functional, cell-based, U-87MG ATCC
[3] = Ratio of compound IC50 to (-)-gossypol IC50 for human U87 cells; format: functional, U-87MG ATCC
HeLa [4] = experiment: Ratio of compound IC50 to cisplatin IC50 for human HeLa cells; format: functional
HeLa [5] = experiment: Ratio of compound IC50 to (-)-gossypol IC50 for human HeLa cells; format: functional
[6] = Ratio of compound IC50 to cisplatin IC50 for human M85 cells; format: functional
[7] = Anticancer activity against human M85 cells after 48 hrs by MTT assay; format: functional, cell-based
[8] = Ratio of compound IC50 to cisplatin IC50 for human U87 cells; format: functional, U-87MG ATCC
HeLa [9] = experiment: Anticancer activity against human HeLa cells after 48 hrs by MTT assay; format: functional, cell-based

| SMILES | Ratio IC50 [1] | IC50 ([2]; u-87mg atcc) [µM] | Ratio IC50 [3] | Ratio IC50 (HeLa [4]) | Ratio IC50 (HeLa [5]) | Ratio IC50 [6] | IC50 ([7]; m85) | Ratio IC50 [8] | IC50 (HeLa [9]; hela) [µM] | IC50 ([2]; Homo sapiens, U-87 MG, 48 h) [µM] | IC50 ([7]; Homo sapiens, M85, 48 h) [µM] | IC50 (HeLa [9]; Homo sapiens, HeLa, 48 h) [µM] |
| --- | --- | --- | --- | --- | --- | --- | --- | --- | --- | --- | --- | --- |
| Cc1cc2c(c(O)c1-c1c(C)cc3c(c1O)/C(=C/N[C@H](CO)[C@H](O)c1ccc([N+](=O)[O-])cc1)C(=O)C(O)=C3C(C)C)/C(=C/N[C@H](CO)[C@H](O)c1ccc([N+](=O)[O-])cc1)C(=O)C(O)=C2C(C)C (stereo in doubt; 1a) | 1.03 | 30.6 | 1.01 | 1.56 | 1.1 | 1.28 | 19 µM | 1.79 | 19.6 | – | – | – |
| Cc1cc2c(c(O)c1-c1c(C)cc3c(c1O)/C(=C/N[C@H](CO)[C@H](O)c1ccc([N+](=O)[O-])cc1)C(=O)C(O)=C3C(C)C)/C(=C/N[C@H](CO)[C@H](O)c1ccc([N+](=O)[O-])cc1)C(=O)C(O)=C2C(C)C (stereo in doubt; 1b) | <0.14 | 13.3 | 0.44 | 0.69 | 0.49 | <0.17 | < 2.5 µM | 0.78 | 8.7 | – | – | – |
| Cc1cc2c(c(O)c1-c1c(C)cc3c(c1O)/C(=C/N[C@H](CO)Cc1ccccc1)C(=O)C(O)=C3C(C)C)/C(=C/N[C@H](CO)Cc1ccccc1)C(=O)C(O)=C2C(C)C (stereo in doubt; 2a) | 1.17 | – | 0.98 | 2.1 | 1.49 | 1.44 | – | 1.73 | – | 29.5 | 21.5 | 26.5 |
| Cc1cc2c(c(O)c1-c1c(C)cc3c(c1O)/C(=C/N[C@H](CO)Cc1ccccc1)C(=O)C(O)=C3C(C)C)/C(=C/N[C@H](CO)Cc1ccccc1)C(=O)C(O)=C2C(C)C (stereo in doubt; 2b) | 0.84 | 29.3 | 0.97 | 1.17 | 0.83 | 1.04 | 15.5 µM | 1.71 | 14.7 | – | – | – |
| Cc1cc2c(c(O)c1-c1c(C)cc3c(c1O)/C(=C/NCCc1ccccc1)C(=O)C(O)=C3C(C)C)/C(=C/NCCc1ccccc1)C(=O)C(O)=C2C(C)C (stereo in doubt; 3a) | – | – | – | 4.11 | 2.91 | – | – | – | – | > 80 | > 80 | 51.8 |
| Cc1cc2c(c(O)c1-c1c(C)cc3c(c1O)/C(=C/NCCc1ccccc1)C(=O)C(O)=C3C(C)C)/C(=C/NCCc1ccccc1)C(=O)C(O)=C2C(C)C (stereo in doubt; 3b) | – | – | – | 3.17 | 2.24 | – | – | – | 39.9 | – | – | – |
| Cc1cc2c(c(O)c1-c1c(C)cc3c(c1O)/C(=C/NCCCO)C(=O)C(O)=C3C(C)C)/C(=C/NCCCO)C(=O)C(O)=C2C(C)C (stereo in doubt; 4a) | 1.15 | 29 | 0.96 | 0.85 | 0.6 | 1.42 | 21.1 µM | 1.7 | – | – | – | 10.7 |
| Cc1cc2c(c(O)c1-c1c(C)cc3c(c1O)/C(=C/NCCCO)C(=O)C(O)=C3C(C)C)/C(=C/NCCCO)C(=O)C(O)=C2C(C)C (stereo in doubt; 4b) | 0.29 | 12.1 | 0.4 | 0.99 | 0.7 | 0.36 | 5.4 µM | 0.71 | 12.5 | – | – | – |
| Cc1cc2c(c(O)c1-c1c(C)cc3c(c1O)/C(=C/NC1CC1)C(=O)C(O)=C3C(C)C)/C(=C/NC1CC1)C(=O)C(O)=C2C(C)C (stereo in doubt; 5a) | 0.95 | > 80 | – | 4.44 | 3.14 | 1.17 | – | – | 55.9 | – | 17.4 | – |
| Cc1cc2c(c(O)c1-c1c(C)cc3c(c1O)/C(=C/NC1CC1)C(=O)C(O)=C3C(C)C)/C(=C/NC1CC1)C(=O)C(O)=C2C(C)C (stereo in doubt; 5b) | – | 32.4 | 1.07 | 1.07 | 0.76 | – | 17.5 µM | 1.89 | 13.5 | – | – | – |
| Cc1cc2c(c(O)c1-c1c(C)cc3c(c1O)/C(=C/Nc1ccc(Br)cc1)C(=O)C(O)=C3C(C)C)/C(=C/Nc1ccc(Br)cc1)C(=O)C(O)=C2C(C)C (stereo in doubt; 6a) | – | – | – | 5.85 | 4.14 | – | – | – | – | > 80 | > 80 | 73.7 |
| Cc1cc2c(c(O)c1-c1c(C)cc3c(c1O)/C(=C/Nc1ccc(Br)cc1)C(=O)C(O)=C3C(C)C)/C(=C/Nc1ccc(Br)cc1)C(=O)C(O)=C2C(C)C (stereo in doubt; 6b) | 4.26 | – | – | 3.9 | 2.76 | 5.26 | 78.4 µM | – | 49.2 | – | – | – |
| COC(=O)[C@H](Cc1ccccc1)N/C=C1\C(=O)C(O)=C(C(C)C)c2cc(C)c(-c3c(C)cc4c(c3O)/C(=C/N[C@@H](Cc3ccccc3)C(=O)OC)C(=O)C(O)=C4C(C)C)c(O)c21 (stereo in doubt; 7a) | – | – | – | – | – | – | – | – | – | > 80 | > 80 | > 80 |
| COC(=O)[C@H](Cc1ccccc1)N/C=C1\C(=O)C(O)=C(C(C)C)c2cc(C)c(-c3c(C)cc4c(c3O)/C(=C/N[C@@H](Cc3ccccc3)C(=O)OC)C(=O)C(O)=C4C(C)C)c(O)c21 (stereo in doubt; 7b) | 3.5 | – | – | 5.48 | 3.88 | 4.32 | 64.4 µM | – | 69 | – | – | – |
| COC(=O)[C@H](Cc1ccc(O)cc1)N/C=C1\C(=O)C(O)=C(C(C)C)c2cc(C)c(-c3c(C)cc4c(c3O)/C(=C/N[C@@H](Cc3ccc(O)cc3)C(=O)OC)C(=O)C(O)=C4C(C)C)c(O)c21 (stereo in doubt; 8a) | 2.84 | 32.1 | 1.06 | 1.73 | 1.22 | 3.52 | 52.4 µM | 1.88 | – | – | – | 21.8 |
| COC(=O)[C@H](Cc1ccc(O)cc1)N/C=C1\C(=O)C(O)=C(C(C)C)c2cc(C)c(-c3c(C)cc4c(c3O)/C(=C/N[C@@H](Cc3ccc(O)cc3)C(=O)OC)C(=O)C(O)=C4C(C)C)c(O)c21 (stereo in doubt; 8b) | 0.89 | 14.5 | 0.48 | 0.9 | 0.64 | 1.09 | 16.3 µM | 0.85 | 11.4 | – | – | – |
| COC(=O)[C@H](Cc1c[nH]c2ccccc12)N/C=C1\C(=O)C(O)=C(C(C)C)c2cc(C)c(-c3c(C)cc4c(c3O)/C(=C/N[C@@H](Cc3c[nH]c5ccccc35)C(=O)OC)C(=O)C(O)=C4C(C)C)c(O)c21 (stereo in doubt; 9a) | – | – | – | – | – | – | – | – | – | > 80 | > 80 | > 80 |
| COC(=O)[C@H](Cc1c[nH]c2ccccc12)N/C=C1\C(=O)C(O)=C(C(C)C)c2cc(C)c(-c3c(C)cc4c(c3O)/C(=C/N[C@@H](Cc3c[nH]c5ccccc35)C(=O)OC)C(=O)C(O)=C4C(C)C)c(O)c21 (stereo in doubt; 9b) | 2.84 | – | – | – | – | 3.51 | 52.3 µM | – | – | – | – | – |
| Cc1cc2c(c(O)c1-c1c(C)cc3c(c1O)/C(=C/NC(C)C)C(=O)C(O)=C3C(C)C)/C(=C/NC(C)C)C(=O)C(O)=C2C(C)C (stereo in doubt; 10a) | 1.86 | – | 0.96 | 1.88 | 1.34 | 2.3 | – | 1.7 | – | 29.1 | 34.2 | 23.8 |
| Cc1cc2c(c(O)c1-c1c(C)cc3c(c1O)/C(=C/NC(C)C)C(=O)C(O)=C3C(C)C)/C(=C/NC(C)C)C(=O)C(O)=C2C(C)C (stereo in doubt; 10b) | 1.66 | 24.4 | 0.81 | 1.36 | 0.96 | 2.04 | 30.4 µM | 1.43 | 17.1 | – | – | – |
| COc1c(OC)c2c3c(c(-c4c(C)cc5c(C(C)C)c(OC)c(OC)c6c5c4OC6OC)c(C)cc3c1C(C)C)OC2OC (stereo not drawn) [(-)-GOSSYPOL HEXAMETHYL ETHER] | – | – | – | – | – | – | – | – | – | > 80 | > 80 | > 80 |
| Cc1cc2c(C(C)C)c(O)c(O)cc2c(O)c1-c1c(C)cc2c(C(C)C)c(O)c(O)cc2c1O [APOGOSSYPOL] | 3.33 | 28.5 | 1.17 and 0.94 | 2.02 and 1.12 | 1.43 and 0.79 | 4.11 | 61.2 µM | 2.08 and 1.67 | 14.1 | 35.5 | > 80 | 25.5 |
| CC1=C(C2=C(C)C(=O)c3c(c(C=O)c(O)c(O)c3C(C)C)C2=O)C(=O)c2c(C=O)c(O)c(O)c(C(C)C)c2C1=O [GOSSYPOLONE] | 1.54 | – | 0.86 | 1.85 | 1.31 | 1.9 | – | 1.53 | – | 26.1 | 28.3 | 23.3 |
| Cc1cc2c(C(C)C)c(O)c(O)c(C=O)c2c(O)c1-c1c(C)cc2c(C(C)C)c(O)c(O)c(C=O)c2c1O [GOSSYPOL] | 1 and 2.16 | 59.6 | 1 and 1.97 | 1.41 and 2.48 | 1 and 1.76 | 1.23 and 2.66 | 18.4 µM and 39.7 µM | 1.77 and 3.49 | 31.3 | 30.2 | – | 17.8 |
